Laboratory results from patent publication US9567586B2, “EpCAM aptamer for detection of cancer stem cells” (DEAKIN UNIVERSITY, priority 2012, dated 2017).

Test system: HEK293T sphere that does not express EpCAM
Test: Penetration of HEK293T sphere (specificity)
Type: cell-based, human
Conditions: 4 h incubation, further 24 h culture
Protocol: After four hour incubation with EpCAM antibody or aptamer 23 separately, the tumor spheres were washed twice with PBS and were cultured for a further 24 h followed by confocal microscopy. Panel A: fluorescence image for aptamer 23. Panel B: phase contrast for tumor sphere. Panel C: fluorescence image for anti-EpCAM antibody. Panel D: phase contrast image for tumour sphere.
To study the ability of EpCAM aptamer or antibody to penetrate tumors, the inventors used a three-dimensional in vitro tumor sphere model. […] After incubating for the indicated time, the spheres were washed twice with PBS and imaged via fluorescence confocal microscopy. A phase contrast image of the sphere was also taken for each sample. […] A retention study was performed whereby the tumour spheres were incubated with EpCAM antibody, aptamer-23 or control aptamer for 4 h, after washing with PBS twice, the tumor spheres were incubated with the culture medium for a further 24 h followed by confocal microscopy.

## 5′-ACGUAUCCCUUUUCGCGUA-3′ (RNA aptamer, fluorescent dye conjugate used, modifications not given here, further chemistry not given here) [compound 23]
  binding to HEK293T sphere: minimal binding
